Patent US8614327B2 (Vertex Pharmaceuticals Incorporated, priority 2004, dated 2013)

Target: T1, ΔF508-CFTR (Homo sapiens, UniProt P13569, DEL508-508)
T1 construct: expressed in transfected cells
Assay: Membrane potential optical (FRET/VIPR) assay, identification of potentiator compounds
Type: cell-based
Settings: Table 3, assay not given; for % Activity: relative efficacy
Outline: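 Double-addition potentiator screen: compound delivered in gluconate-substituted Cl^--free medium, membrane potential followed via CC2-DMPE/DiSBAC2(3) FRET on VIPR. Cells were ΔF508-CFTR-expressing NIH3T3 mouse fibroblasts, held 2 h at 37° C. then 24 h at 27° C. before assay.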

T1 sequence (P13569 with tags, fused parts or gaps DEL508-508): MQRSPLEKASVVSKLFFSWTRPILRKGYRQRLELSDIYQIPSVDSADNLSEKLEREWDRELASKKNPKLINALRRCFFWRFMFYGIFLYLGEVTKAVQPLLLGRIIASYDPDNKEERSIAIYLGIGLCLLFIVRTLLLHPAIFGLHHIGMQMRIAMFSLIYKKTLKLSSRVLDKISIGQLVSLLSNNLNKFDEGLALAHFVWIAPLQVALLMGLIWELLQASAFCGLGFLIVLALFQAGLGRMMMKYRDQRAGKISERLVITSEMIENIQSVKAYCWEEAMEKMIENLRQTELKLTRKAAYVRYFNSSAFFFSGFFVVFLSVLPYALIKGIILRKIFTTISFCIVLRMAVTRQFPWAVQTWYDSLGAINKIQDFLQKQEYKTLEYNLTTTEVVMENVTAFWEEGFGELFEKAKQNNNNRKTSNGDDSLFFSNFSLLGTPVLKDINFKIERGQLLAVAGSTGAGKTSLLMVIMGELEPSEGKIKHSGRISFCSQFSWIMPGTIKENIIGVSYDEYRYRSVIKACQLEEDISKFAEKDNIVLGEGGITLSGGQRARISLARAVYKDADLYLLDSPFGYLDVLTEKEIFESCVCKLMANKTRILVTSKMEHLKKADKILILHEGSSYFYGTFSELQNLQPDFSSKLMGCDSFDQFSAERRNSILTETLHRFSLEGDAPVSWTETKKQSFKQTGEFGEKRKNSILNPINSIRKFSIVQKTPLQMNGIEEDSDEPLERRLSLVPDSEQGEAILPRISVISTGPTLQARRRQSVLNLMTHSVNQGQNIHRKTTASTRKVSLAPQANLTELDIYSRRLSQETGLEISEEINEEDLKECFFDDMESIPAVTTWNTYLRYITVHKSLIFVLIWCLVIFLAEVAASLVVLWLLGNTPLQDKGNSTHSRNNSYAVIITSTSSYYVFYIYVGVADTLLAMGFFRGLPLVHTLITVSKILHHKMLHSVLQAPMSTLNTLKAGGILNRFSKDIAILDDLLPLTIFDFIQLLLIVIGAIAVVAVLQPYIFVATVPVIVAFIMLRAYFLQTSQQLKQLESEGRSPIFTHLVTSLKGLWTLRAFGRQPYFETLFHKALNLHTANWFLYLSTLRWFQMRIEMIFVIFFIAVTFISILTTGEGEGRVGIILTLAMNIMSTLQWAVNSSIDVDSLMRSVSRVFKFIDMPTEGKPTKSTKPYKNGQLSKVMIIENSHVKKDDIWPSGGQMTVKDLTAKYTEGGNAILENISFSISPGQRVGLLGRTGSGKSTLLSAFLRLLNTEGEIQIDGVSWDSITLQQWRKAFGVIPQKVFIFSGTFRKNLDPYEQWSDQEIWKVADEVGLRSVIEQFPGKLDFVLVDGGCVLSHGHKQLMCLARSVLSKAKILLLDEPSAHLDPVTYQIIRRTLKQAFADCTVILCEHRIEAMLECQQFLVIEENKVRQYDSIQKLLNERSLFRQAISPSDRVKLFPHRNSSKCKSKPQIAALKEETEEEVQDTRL

SMILES	EC50	% Activity
O=C(Nc1ccc(C(F)(F)F)cn1)c1c[nH]c2ccccc2c1=O [Compound 74, 4-oxo-N-[5-(trifluoromethyl)-2-pyridyl]-1H-quinoline-3-carboxamide]	25 to 60 µM	+ (<25%)
O=C(Nc1cc2[nH]ccc2cc1-c1ccccc1)c1c[nH]c2ccccc2c1=O [Compound 158, 4-Oxo-N-(5-phenyl-1H-indol-6-yl)-1H-quinoline-3-carboxamide]	< 10 µM	++ (between 25% to 100%)
Cc1ccc(-c2ccccc2NC(=O)c2c[nH]c3ccccc3c2=O)o1 [Compound 311, N-[2-(5-methyl-2-furyl)phenyl]-4-oxo-1H-quinoline-3-carboxamide]	< 10 µM	++ (between 25% to 100%)
CC(C)Cc1ccc(-c2ccccc2NC(=O)c2c[nH]c3ccccc3c2=O)cc1 [Compound 391, N-[2-(4-isobutylphenyl)phenyl]-4-oxo-1H-quinoline-3-carboxamide]	< 10 µM	++ (between 25% to 100%)
CC(C)(C)c1cc(C(F)(F)F)c(NC(=O)c2c[nH]c3ccccc3c2=O)cc1O [Compound 266, N-[5-hydroxy-4-tert-butyl-2-(trifluoromethyl)phenyl]-4-oxo-1H-quinoline-3-carboxamide]	< 10 µM	++ (between 25% to 100%)
NC(=O)c1cccc(NC(=O)c2c[nH]c3ccccc3c2=O)c1 [Compound 179, N-(3-carbamoylphenyl)-4-oxo-1H-quinoline-3-carboxamide]	25 to 60 µM	+ (<25%)
N#Cc1cc2ccc(NC(=O)c3c[nH]c4ccccc4c3=O)cc2[nH]1 [Compound 270, N-(2-cyano-1H-indol-6-yl)-4-oxo-1H-quinoline-3-carboxamide]	< 10 µM	++ (between 25% to 100%)
O=C(Nc1ccccc1C(F)(F)F)c1c[nH]c2ccccc2c1=O [Compound 111, 4-oxo-N-[2-(trifluoromethyl)phenyl]-1H-quinoline-3-carboxamide]	< 10 µM	++ (between 25% to 100%)
CC(C)(C)c1ccc(NC(=O)c2c[nH]c3ccccc3c2=O)cc1N [Compound 271, N-(3-amino-4-tert-butyl-phenyl)-4-oxo-1H-quinoline-3-carboxamide]	< 10 µM	++ (between 25% to 100%)
O=C(Nc1ccccc1-c1cccc(C(F)(F)F)c1)c1c[nH]c2ccccc2c1=O [Compound 278, 4-oxo-N-[2-[3-(trifluoromethyl)phenyl]phenyl]-1H-quinoline-3-carboxamide]	< 10 µM	++ (between 25% to 100%)
O=C(Nc1cc(O)c(C23CC4CC(CC(C4)C2)C3)cc1F)c1cnc2ccccc2c1O [Compound 395, N-[4-(1-adamantyl)-2-fluoro-5-hydroxy-phenyl]-4-hydroxy-quinoline-3-carboxamide]	< 10 µM	++ (between 25% to 100%)
CSc1ccccc1NC(=O)c1c[nH]c2ccccc2c1=O [Compound 229, N-(2-methylsulfanylphenyl)-4-oxo-1H-quinoline-3-carboxamide]	< 10 µM	++ (between 25% to 100%)

Next, values leading:

EC50	% Activity	SMILES
< 10 µM	++ (between 25% to 100%)	CC(C)(C)c1cc(F)c(NC(=O)c2c[nH]c3cc(C#N)ccc3c2=O)cc1O [Compound 677, 7-cyano-N-(2-fluoro-5-hydroxy-4-tert-butyl-phenyl)-4-oxo-1H-quinoline-3-carboxamide]
< 10 µM	++ (between 25% to 100%)	Cc1cccc(NC(=O)c2c[nH]c3ccccc3c2=O)c1 [Compound 449, N-(m-tolyl)-4-oxo-1H-quinoline-3-carboxamide]
< 10 µM	++ (between 25% to 100%)	CC(C)(C)c1c[nH]c2cc(NC(=O)c3c[nH]c4ccccc4c3=O)ccc12 [Compound 478, 4-oxo-N-(3-tert-butyl-1H-indol-6-yl)-1H-quinoline-3-carboxamide]
< 10 µM	++ (between 25% to 100%)	O=C(Nc1cc(OCc2ccccc2)c(C2CCCCC2)cc1C(F)(F)F)c1c[nH]c2ccccc2c1=O [Compound 654, N-[5-benzyloxy-4-cyclohexyl-2-(trifluoromethyl)phenyl]-4-oxo-1H-quinoline-3-carboxamide]
10 to 25 µM	+ (<25%)	CCc1cccc2c(=O)c(C(=O)Nc3cc(O)c(C(C)(C)C)cc3F)c[nH]c12 [Compound 605, 8-ethyl-N-(2-fluoro-5-hydroxy-4-tert-butyl-phenyl)-4-oxo-1H-quinoline-3-carboxamide]
< 10 µM	+ (<25%)	CC1(c2ccc(NC(=O)c3c[nH]c4cccc(O)c4c3=O)cc2O)CCCCC1 [Compound 606, 5-hydroxy-N-[3-hydroxy-4-(1-methylcyclohexyl)-phenyl]-4-oxo-1H-quinoline-3-carboxamide]
< 10 µM	++ (between 25% to 100%)	Cc1ccc2[nH]cc(C(=O)Nc3ccc(N4CCCC4C)cc3C(F)(F)F)c(=O)c2c1 (stereo not drawn) [Compound 503, 6-methyl-N-[4-(2-methylpyrrolidin-1-yl)-2-(trifluoromethyl)phenyl]-4-oxo-1H-quinoline-3-carboxamide]
< 10 µM	++ (between 25% to 100%)	CN(c1ccc(F)cc1)S(=O)(=O)c1ccc2[nH]cc(C(=O)Nc3cc4[nH]ccc4cc3C(C)(C)C)c(=O)c2c1 [Compound 406, 6-[(4-fluorophenyl)-methyl-sulfamoyl]-4-oxo-N-(5-tert-butyl-1H-indol-6-yl)-1H-quinoline-3-carboxamide]
25 to 60 µM	+ (<25%)	Cn1cc(C(=O)Nc2ccccc2)c(=O)c2ccccc21 [Compound 468, 1-methyl-4-oxo-N-phenyl-1H-quinoline-3-carboxamide]
25 to 60 µM	+ (<25%)	O=C(Nc1ccc2c(c1)S(=O)(=O)C=C2)c1c[nH]c2ccccc2c1=O [Compound 446, N-(1,1-dioxobenzothiophen-6-yl)-4-oxo-1H-quinoline-3-carboxamide]
< 10 µM	++ (between 25% to 100%)	CC(C)(C)c1cc(C(C)(C)C)c(NC(=O)c2c[nH]c3cc(C#N)ccc3c2=O)cc1O [Compound 548, 7-cyano-N-(5-hydroxy-2,4-ditert-butyl-phenyl)-4-oxo-1H-quinoline-3-carboxamide]
< 10 µM	++ (between 25% to 100%)	CC(C)(C)c1ccc(NC(=O)c2c[nH]c3ccccc3c2=O)cc1O [Compound 428, N-(3-hydroxy-4-tert-butyl-phenyl)-4-oxo-1H-quinoline-3-carboxamide]
< 10 µM	++ (between 25% to 100%)	COc1cc(NC(=O)c2c[nH]c3ccccc3c2=O)cc2ccccc12 [Compound 717, N-(4-methoxy-2-naphthyl)-4-oxo-1H-quinoline-3-carboxamide]
< 10 µM	+ (<25%)	CCOc1cccc2c(=O)c(C(=O)Nc3ccc(C(C)C)cc3C(F)(F)F)c[nH]c12 [Compound 517, 8-ethoxy-N-[4-isopropyl-2-(trifluoromethyl)phenyl]-4-oxo-1H-quinoline-3-carboxamide]
< 10 µM	+++ (>100%)	Cc1ccc2c(=O)c(C(=O)Nc3cc(O)c(C(C)(C)C)cc3C(C)(C)C)c[nH]c2c1 [Compound 640, N-(5-hydroxy-2,4-ditert-butyl-phenyl)-7-methyl-4-oxo-1H-quinoline-3-carboxamide]
